{"source": "patent US5698521A", "about": "“Native calcitonin mimetics” (ZymoGenetics, Inc., priority 1995, dated 1997)", "key": {"[1]": {"tested_on": "PTH-Induced Bone Resorption in Mouse Calvariae", "assay": "Calvarial assay: PTH-induced bone resorption (calcium release)", "type": "cell-based", "conditions": "1 nM PTH 1-34, 72 hours, read-out: Inhibition of Ca++ Release EC50", "procedure": "Calvaria from 4-day old neonatal CD-1 mice (pregnant mice received from Charles River Laboratories, Wilmington, Mass.) were trimmed with fine-tipped scissors to leave the parietal regions, including the sagittal suture. These trimmed bones were placed singly per well into 6-well cell culture cluster plates (Costar, Pleasanton, Calif.) with 1 ml/well of growth medium (DMEM, BioWhittaker, Walkersville, Md.) with 4.5 g/L glucose, 0.29 mg/ml L-glutamine, 1 mM sodium pyruvate, 15% heat-inactivated horse serum, and antibiotics (penicillin-G 50 μg/ml, streptomycin 50 μg/ml, and neomycin 100 μg/ml), and rocked gently (RedRocker™, model PR50-115V, Hoefer, San Francisco, Calif.) at 37° C. in a 5% CO2 humidified incubator for 24 hours preincubation.\nFollowing incubation, medium was removed and replaced with 1.5 ml/well of growth medium containing 1 nM parathyroid hormone (PTH) 1-34 (Sigma) to stimulate bone resorption. For evaluation of the ability of calcitonin mimetics to inhibit PTH induced bone resorption, mimetic compounds in DMSO were added to the growth medium at concentrations ranging from 1-240 μg/ml (final assay concentration of DMSO less than or equal to 1%). In each experiment human calcitonin (0.02-20 nM, 0.2-2 nM preferred) was added to PTH treated bones as a positive control. […]"}, "[2]": {"tested_on": "osteoclasts in mouse calvariae", "assay": "Calvaria histology (TRAP-stained osteoclast number and size)", "type": "cell-based", "excerpt": "To confirm the findings in the calvarial bone resorption assay employing calcium release from culture mouse calvariae, selected bones were fixed in 10% neutral buffered formalin and demineralized in 5% formic acid with 5% formalin. The bones were dehydrated through an ascending series of ethanol concentrations, infiltrated in glycol methacrylate, and embedded using a JB-4 embedding kit (PolySciences, Warrington, Pa.) (Liu and Kalu, J. Bone Miner. Res., 5:973-82, 1990). Cross sections of calvariae cut at 5 μm were obtained and stained for tartrate-resistant acid phosphatase (TRAP) activity and counterstained with methyl green and thionin for cell morphology (Liu and Kalu, J. Bone. Miner. Res. 1990, supra). Osteoclasts were identified by TRAP stain, multinucleation, large cell size, and irregular cell shape. The number of osteoclasts were counted from endocranial and ectocranial bone surfaces and expressed as number/mm perimeter. The size of all the osteoclasts counted was also measured using a Bone Morphometry program (Lui and Kalu, supra.; Bain et al., J. Done Miner. Res. 8:435-42, 1993). […] This PTH-induced increase was suppressed by treatment with human calcitonin.\nCalcitonin mimetic compounds were evaluated in a similar fashion for their ability to suppress PTH-induced increases in osteoclast number and size. Cell toxicity (or death) was also evaluated morphologically. […]"}, "[3]": {"biological_target": "T1, human calcitonin receptor (Homo sapiens, UniProt P30988)", "T1 construct": "expressed in transfected cells; host or cells: BHK 570 clone KZ10-20-48 (CRE-luciferase), clone Hollex-1", "T1 sequence (P30988 25-474)": "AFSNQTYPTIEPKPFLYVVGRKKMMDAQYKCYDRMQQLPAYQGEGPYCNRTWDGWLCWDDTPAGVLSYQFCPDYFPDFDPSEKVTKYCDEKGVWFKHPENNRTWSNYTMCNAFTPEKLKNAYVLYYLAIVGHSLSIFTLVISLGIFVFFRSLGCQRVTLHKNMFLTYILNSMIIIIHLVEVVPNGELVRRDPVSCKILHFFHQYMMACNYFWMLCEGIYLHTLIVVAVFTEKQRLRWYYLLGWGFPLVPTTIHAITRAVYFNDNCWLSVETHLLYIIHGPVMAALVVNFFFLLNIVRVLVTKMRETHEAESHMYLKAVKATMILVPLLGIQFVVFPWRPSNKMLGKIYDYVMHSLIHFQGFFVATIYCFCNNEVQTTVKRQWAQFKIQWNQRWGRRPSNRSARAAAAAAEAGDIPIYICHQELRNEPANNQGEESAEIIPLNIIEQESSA", "assay": "CRE-luciferase induction in Hollex-1 cells (BHK 570 expressing human calcitonin receptor and CRE-luciferase reporter)", "type": "cell-based", "conditions": "BHK 570 cells expressing human calcitonin receptor and CRE-luciferase reporter (Hollex-1)"}, "[4]": {"assay": "Solubility of isolated powders in organic solvents", "type": "physicochemical"}, "human glucagon receptor [5]": {"biological_target": "T2, human glucagon receptor (Homo sapiens, UniProt P47871)", "T2 sequence (P47871 26-477)": "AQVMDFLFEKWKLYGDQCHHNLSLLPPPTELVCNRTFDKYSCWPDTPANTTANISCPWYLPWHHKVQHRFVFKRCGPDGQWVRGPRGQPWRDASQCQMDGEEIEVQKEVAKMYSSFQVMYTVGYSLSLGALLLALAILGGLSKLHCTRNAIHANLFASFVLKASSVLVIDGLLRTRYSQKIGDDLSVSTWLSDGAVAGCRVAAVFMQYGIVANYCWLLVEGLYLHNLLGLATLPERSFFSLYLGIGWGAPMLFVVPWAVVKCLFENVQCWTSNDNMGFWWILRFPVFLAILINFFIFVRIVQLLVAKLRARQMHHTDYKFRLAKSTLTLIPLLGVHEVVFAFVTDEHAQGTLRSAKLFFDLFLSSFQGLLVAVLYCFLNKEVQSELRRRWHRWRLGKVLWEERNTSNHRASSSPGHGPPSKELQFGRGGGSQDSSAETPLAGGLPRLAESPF", "conditions": "KZ10-20-48/pLJ6-4-25 clone"}, "human glucagon receptor [6]": {"biological_target": "T2, human glucagon receptor", "assay": "cell-based"}, "[7]": {"tested_on": "KZ10-20-48/Zem 228 cells (calcitonin receptor negative)", "assay": "CRE-luciferase induction in calcitonin receptor negative line KZ10-20-48/Zem 228 (specificity control)", "type": "cell-based, baby hamster"}, "[8]": {"tested_on": "human calcitonin receptor", "assay": "CRE-luciferase induction in Hollex-1 cells (BHK 570 expressing human calcitonin receptor and CRE-luciferase reporter)", "type": "cell-based", "conditions": "Hollex-1 clone; read-out: forskolin EC50, CRE-luciferase induction"}, "[9]": {"biological_target": "hamster calcitonin receptor (Mesocricetus auratus, UniProt A0A3Q0D7K7)", "sequence (A0A3Q0D7K7 entry or part of it)": "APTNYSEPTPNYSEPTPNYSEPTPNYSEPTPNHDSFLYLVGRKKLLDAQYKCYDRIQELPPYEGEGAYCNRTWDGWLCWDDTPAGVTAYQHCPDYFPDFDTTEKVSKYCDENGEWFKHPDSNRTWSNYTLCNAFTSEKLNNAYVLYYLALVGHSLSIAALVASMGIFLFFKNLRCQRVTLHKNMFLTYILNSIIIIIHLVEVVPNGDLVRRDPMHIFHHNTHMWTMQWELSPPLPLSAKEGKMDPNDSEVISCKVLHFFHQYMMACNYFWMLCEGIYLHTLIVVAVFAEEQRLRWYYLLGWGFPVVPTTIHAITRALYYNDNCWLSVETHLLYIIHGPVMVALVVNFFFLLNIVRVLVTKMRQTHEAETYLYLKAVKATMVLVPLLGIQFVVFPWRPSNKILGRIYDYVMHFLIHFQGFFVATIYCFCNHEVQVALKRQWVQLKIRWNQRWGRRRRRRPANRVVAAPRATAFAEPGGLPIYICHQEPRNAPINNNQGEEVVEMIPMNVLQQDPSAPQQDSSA", "assay": "CRE-luciferase induction in Boris/KZ10-3 cells (calcitonin receptor positive)"}, "[10]": {"tested_on": "KZ10-20-48 cells (CRE-luciferase reporter)", "assay": "CRE-luciferase induction in parent reporter line BHK/KZ10-20-48", "type": "cell-based, baby hamster", "conditions": "clone KZ10-20-48, 25 mM forskolin, 4 hours; range 15-25 fold", "procedure": "Stable transfectants were selected by growth in Dulbecco's modified Eagle's medium (DMEM) supplemented with 10% heat inactivated fetal bovine serum (HI-FBS), 2 mM L-glutamine and 1 mM sodium pyruvate containing 250 nM methotrexate (MTX) for 10-14 days. Clones were isolated, grown to confluence in opaque white microtiter plates (Dynatech, Chantilly, Va.), then treated with […], which elevates cellular cAMP through direct activation of adenylate cyclase (Berkowitz and Gilman, Proc. Nat. Acad. Sci. USA 87:5258-62, 1990) for 4 hours at 37° C., 5% CO2 . Following incubation, cells were lysed and assayed for luciferase induction in a Labsystems Luminoskan microtiter luminometer (Labsystems Inc., Morton Grove, Ill.) using a Promega luciferase kit (El500, Promega Corp., Madison, Wis.), as described below."}, "[11]": {"conditions": "in acetonitrile, ethyl acetate, and chloroform"}, "[12]": {"conditions": "in methanol, ethanol, n-butanol and dimethyl sulfoxide"}}, "note": "Where a SMILES comes first, the peptide text is derived from it. [ ]: non-standard residue; d: D form. ξ: configuration not given here. ξPro(4ξ-Me) = CC1CNC(C(=O)O)C1; ξIva = CCC(C)(N)C(=O)O; Aib = CC(C)(N)C(=O)O", "data": [{"molecule": "CC[C@H](C)[C@H](NC(=O)C(C)(C)NC(=O)[C@H](CCC(N)=O)NC(=O)C(C)(CC)NC(=O)[C@H](Cc1c[nH]c2ccccc12)NC(C)=O)C(=O)N[C@H](C(=O)NC(C)(C)C(=O)N[C@@H](CC(C)C)C(=O)NC(C)(C)C(=O)N1CCC[C@H]1C(=O)N[C@@H](CCC(N)=O)C(=O)NC(C)(C)C(=O)N1CCC[C@H]1C(=O)NC(C)(C)C(=O)N1CC(C)CC1C(=O)N[C@@H](Cc1ccccc1)C(=O)NCC(=O)O)[C@@H](C)O", "note": "(stereo partly drawn) [ZG 2807 A, Acetyl-Trp-Xaal-Gln-2-aminoisobutyric acid (Aib)-Ile-Thr-Aib-Leu-Aib-Pro-Gln-Aib-Pro-Aib-Xaa2-Phe-Gly] (Ac-W[ξIva]Q[Aib]IT[Aib]L[Aib]PQ[Aib]P[Aib][ξPro(4ξ-Me)]FG-OH)", "values": [{"measurement": "EC50", "setting": "[1]", "value": 33.2, "unit": "µM"}, {"measurement": "Histology", "setting": "[2]; PTH-treated mouse calvariae, the cell wraps over two lines: 'Inhibition of osteoclast size'", "value": "Inhibition of osteoclast"}, {"measurement": "EC50", "setting": "[3]", "value": 506, "unit": "nM"}, {"measurement": "solubility", "setting": "[4]; [11]", "value": "slightly soluble"}, {"measurement": "solubility", "setting": "[4]; in hexane", "value": "insoluble"}, {"measurement": "solubility", "setting": "[4]; [12]", "value": "readily soluble"}]}, {"molecule": "CC[C@H](C)[C@H](NC(=O)C(C)(C)NC(=O)[C@H](CCC(N)=O)NC(=O)C(C)(CC)NC(=O)[C@H](Cc1c[nH]c2ccccc12)NC(C)=O)C(=O)N[C@H](C(=O)NC(C)(C)C(=O)N[C@@H](CC(C)C)C(=O)NC(C)(C)C(=O)N1CCC[C@H]1C(=O)N[C@@H](CCC(N)=O)C(=O)NC(C)(C)C(=O)N1CCC[C@H]1C(=O)NC(C)(C)C(=O)N1CC(C)CC1C(=O)N[C@@H](Cc1ccccc1)C(=O)O)[C@@H](C)O", "note": "(stereo partly drawn) [ZG 2807 B, Acetyl-Trp-Xaal-Gln-Aib-Ile-Thr-Aib-Leu-Aib-Pro-Gln-Aib-Pro-Aib-Xaa2-Phe] (Ac-W[ξIva]Q[Aib]IT[Aib]L[Aib]PQ[Aib]P[Aib][ξPro(4ξ-Me)]F-OH)", "values": [{"measurement": "EC50", "setting": "[3]", "value": 525, "unit": "nM"}, {"measurement": "solubility", "setting": "[4]; [11]", "value": "slightly soluble"}, {"measurement": "solubility", "setting": "[4]; in hexane", "value": "insoluble"}, {"measurement": "solubility", "setting": "[4]; [12]", "value": "readily soluble"}]}, {"molecule": "C=C[C@@]1(C)CC(=O)[C@]2(O)[C@@]3(C)[C@@H](O)CCC(C)(C)[C@@H]3[C@H](O)[C@H](OC(C)=O)[C@@]2(C)O1", "note": "[forskolin]", "values": [{"measurement": "induction of luciferase", "setting": "human glucagon receptor [5]", "value": 35, "unit": "fold"}, {"measurement": "EC50", "setting": "human glucagon receptor [6]", "value": 2100, "unit": "nM"}, {"measurement": "EC50", "setting": "[7]; Mesocricetus auratus, range 0.5-1.5 μM", "value": 600, "unit": "nM"}, {"measurement": "induction of CRE-luciferase", "setting": "[7]; range 20-35 fold", "value": 30, "unit": "fold"}, {"measurement": "EC50", "setting": "[8]", "value": 1200, "unit": "nM"}, {"measurement": "EC50", "setting": "[9]", "value": 900, "unit": "nM"}, {"measurement": "induction of luciferase", "setting": "[9]; Boris/KZ10-3 clone", "value": 25, "unit": "fold"}, {"measurement": "induction of CRE-luciferase vs basal", "setting": "[10]", "value": 20, "unit": "fold"}]}, {"molecule": "parathyroid hormone (PTH) 1-34 (SVSEIQLMHNLGKHLNSMERVEWLRKKLQDVHNF; Parathyroid hormone; UniProt P01270 32-65, looked up, fragment) [PTH 1-34, stimulus of bone resorption in the calvarial assay, reference compound]", "values": [{"measurement": "number and size of osteoclasts (histomorphometry)", "setting": "[2]; cultured mouse calvariae, calcitonin tested against the PTH-induced increase", "value": "increases in the number and size of osteoclasts"}]}]}
